Source: patent publication US20240408216A1, “PROTEIN INHIBITOR OR DEGRADING AGENT, PHARMACEUTICAL COMPOSITION CONTAINING SAME AND PHARMACEUTICAL USE” (JING MEDICINE TECHNOLOGY (SHANGHAI) LTD., priority 2021, published 2024)

How the values were obtained:
human EGFR-DTC = experiment: EGFR protein abundance assay (Western blotting), EGFR-DTC; assay type: cell-based; details: Ba/F3 cells expressing human EGFR-DTC, 24 h, Western blot
Protocol: (§1) Mouse Ba/F3 cells stably expressing human EGFR-DTC, EGFR-LTC, or EGFR-DC were transferred to Petri dishes with RPMI-1640 medium (Gibco, Product No. 11875093) containing 10% fetal bovine serum (FBS, Biological Industries, Product No. 04-001-1A) and 0.1% penicillin/streptomycin (P/S) and incubated in an aseptic incubator at 37° C., 95% relative humidity, and 5% CO2. Cells at the logarithmic growth phase were taken and seeded at a density of 50000 cells/well in 12-well plates (Corning, Product No. 3513) containing 1 mL of medium per well. After 24 h, the compounds disclosed herein with different concentrations were added to the wells at a final DMSO concentration of 0.1%. After 24 h, cells were lysed in SDS lysis buffer (1.45 g of SDS, 0.2 g of Tris base, 6 mL of glycerol, 20 mg of bromophenol blue, 310 mg DTT; brought to 40 mL with d2H2O), and the EGFR levels were detected and analyzed by Western Blotting (immunoblotting) using standard molecular biological techniques. Cell lysates were boiled at 95° C. for 8 min, mixed and centrifuged. The total cell proteins in the lysates were subjected to SDS-PAGE (GenScript, Product No. M00654), transferred to NC membranes (GE, Product No. 1060002) by blotting, incubated in a blocking buffer (TAKARA, Product No. T7131A) at room temperature for 60 min, and co-incubated overnight at 4° C. with the following primary antibodies: anti-EGFR (#4267S, 1:1000), anti-phoso-EGFR (#3777S, 1:1000), anti-GAPDH (#5174S, 1:10000), anti-Actin (#5125 S, 1:10000) (all purchased from Cell Signaling Technology). The samples were washed three times with TBST at room temperature, each for 10 min, and then incubated for 60 minutes in a blocking buffer containing a secondary antibody (#7074S, 1:10000, purchased from Cell Signaling Technology) at room temperature. The samples were washed three times with TBST at room temperature, each for 10 min. Chemiluminescent substrates were added, and an Azure c300 system was used for imaging.

LT = experiment: Cell proliferation IC50 assay (Cell Titer GLO), LT cells; assay type: cell-based; details: Mus musculus; Table 7; LT cells (BaF3 with EGFR mutant), 72 h
Protocol: (§2) IC50 of compounds in the present invention was determined by Cell Titer GLO reagent from Promega. The procedures are as follows:
(§3) Tumor cells were cultured in specified medium in an incubator at 37° C. and 5% CO2. The cells were passaged periodically. Cells at the logarithmic growth phase were collected for plating at a density of 2000-4000 cells/well. The next day, the compounds of the present invention were serially diluted and added to the cells, with DMSO being the negative control and the culture media without cells being the blank control. The plate was incubated in the incubator for 72 h. The cell viability assay was performed by adding the detection reagents to the cell culture media according to Cell Titer GLO reagent instructions and detecting luminescent signals on an EnVision microplate reader (PerkinElmer).
(§4) Inhibition of cell growth by the compounds of the present invention was plotted by Prism Graphpad software for statistically calculating the IC50 of the compound of the present invention.

human EGFR-LTC = target: T1, human EGFR-LTC (Homo sapiens, UniProt P00533, C797S/L858R/T790M); experiment: EGFR protein abundance assay (Western blotting), EGFR-LTC; assay type: cell-based; details: 24 h, Western blot
T1 construct: expressed in transfected cells
Protocol: as §1

BaF3 (EGFR WT) = experiment: Cell proliferation IC50 assay (Cell Titer GLO), BaF3 WT cells; assay type: cell-based; details: Mus musculus, Ba/F3 EGFR, Table 5, 10 ng/ml EGF, 72 h
Method in brief: (§5)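 Growth inhibition is measured over 72 h of continuous compound treatment in cells seeded at 2000-4000 per well.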

BaF3 patent = experiment: Cell proliferation IC50 assay (Cell Titer GLO), BaF3 parental cells; assay type: cell-based; details: Mus musculus, Table 5, 10 ng/ml mIL3, 72 h
Protocol: as §2, §3, §4

BaF3 (EGFR L858R/C797S) = BaF3 (EGFR L858R/C797S) (Homo sapiens, UniProt P00533, C797S/L858R, cells depend on it); experiment: Cell proliferation IC50 assay (Cell Titer GLO), BaF3 LC cells; assay type: cell-based, mouse; details: Table 7, 72 h
Protocol: as §2, §3, §4

BaF3 (EGFR Del19) = BaF3 (EGFR Del19) (Homo sapiens, UniProt P00533, cells depend on it, form not given); experiment: Cell proliferation IC50 assay (Cell Titer GLO), BaF3 D cells; assay type: cell-based, mouse; details: Table 7, 72 h
Protocol: as §2, §3, §4

BaF3 (EGFR Del19/C797S) = target: T2, BaF3 (EGFR Del19/C797S) (Homo sapiens, UniProt P00533, C797S, cells depend on it, form not given); experiment: Cell proliferation IC50 assay (Cell Titer GLO), BaF3 DC cells; assay type: cell-based, mouse; details: Table 7, 72 h
T2 construct: BaF3 (EGFR Del19/C797S)|DC|RPMI1640 + 10% FBS
Method in brief: as §5

A431 = experiment: Cell proliferation IC50 assay (Cell Titer GLO), A431 cells; assay type: cell-based; details: Homo sapiens, A-431; Table 5; A431, 72 h; read-out: A431 IC50
Method in brief: as §5

[1] = system: BaF3 (EGFR Del19/T790M/C797S); experiment: Cell proliferation IC50 assay (Cell Titer GLO), BaF3 DTC cells; assay type: cell-based; details: Mus musculus, Ba/F3 EGFR-Del19/T790M/C797S, Table 5, 72 h
Method in brief: as §5

BaF3 (EGFR L858R) = BaF3 (EGFR L858R) (Homo sapiens, UniProt P00533, L858R, cells depend on it); experiment: Cell proliferation IC50 assay (Cell Titer GLO), BaF3 L cells; assay type: cell-based, mouse; details: Table 7, 72 h
Protocol: as §2, §3, §4

[2] = system: BaF3 (EGFR L858R/T790M/C797S); experiment: Cell proliferation IC50 assay (Cell Titer GLO), BaF3 LTC cells; assay type: cell-based; details: Mus musculus, Ba/F3 EGFR, Table 5, 72 h
Method in brief: as §5

human EGFR-DC = experiment: EGFR protein abundance assay (Western blotting), EGFR-DC; assay type: cell-based; details: Ba/F3 cells expressing human EGFR-DC, 24 h, Western blot
Protocol: as §1

DT = experiment: Cell proliferation IC50 assay (Cell Titer GLO), DT cells; assay type: cell-based; details: Mus musculus; Table 7; DT cells (BaF3 with EGFR mutant), 72 h
Protocol: as §2, §3, §4

T1 sequence (P00533 25-1210 T790M/C797S/L858R): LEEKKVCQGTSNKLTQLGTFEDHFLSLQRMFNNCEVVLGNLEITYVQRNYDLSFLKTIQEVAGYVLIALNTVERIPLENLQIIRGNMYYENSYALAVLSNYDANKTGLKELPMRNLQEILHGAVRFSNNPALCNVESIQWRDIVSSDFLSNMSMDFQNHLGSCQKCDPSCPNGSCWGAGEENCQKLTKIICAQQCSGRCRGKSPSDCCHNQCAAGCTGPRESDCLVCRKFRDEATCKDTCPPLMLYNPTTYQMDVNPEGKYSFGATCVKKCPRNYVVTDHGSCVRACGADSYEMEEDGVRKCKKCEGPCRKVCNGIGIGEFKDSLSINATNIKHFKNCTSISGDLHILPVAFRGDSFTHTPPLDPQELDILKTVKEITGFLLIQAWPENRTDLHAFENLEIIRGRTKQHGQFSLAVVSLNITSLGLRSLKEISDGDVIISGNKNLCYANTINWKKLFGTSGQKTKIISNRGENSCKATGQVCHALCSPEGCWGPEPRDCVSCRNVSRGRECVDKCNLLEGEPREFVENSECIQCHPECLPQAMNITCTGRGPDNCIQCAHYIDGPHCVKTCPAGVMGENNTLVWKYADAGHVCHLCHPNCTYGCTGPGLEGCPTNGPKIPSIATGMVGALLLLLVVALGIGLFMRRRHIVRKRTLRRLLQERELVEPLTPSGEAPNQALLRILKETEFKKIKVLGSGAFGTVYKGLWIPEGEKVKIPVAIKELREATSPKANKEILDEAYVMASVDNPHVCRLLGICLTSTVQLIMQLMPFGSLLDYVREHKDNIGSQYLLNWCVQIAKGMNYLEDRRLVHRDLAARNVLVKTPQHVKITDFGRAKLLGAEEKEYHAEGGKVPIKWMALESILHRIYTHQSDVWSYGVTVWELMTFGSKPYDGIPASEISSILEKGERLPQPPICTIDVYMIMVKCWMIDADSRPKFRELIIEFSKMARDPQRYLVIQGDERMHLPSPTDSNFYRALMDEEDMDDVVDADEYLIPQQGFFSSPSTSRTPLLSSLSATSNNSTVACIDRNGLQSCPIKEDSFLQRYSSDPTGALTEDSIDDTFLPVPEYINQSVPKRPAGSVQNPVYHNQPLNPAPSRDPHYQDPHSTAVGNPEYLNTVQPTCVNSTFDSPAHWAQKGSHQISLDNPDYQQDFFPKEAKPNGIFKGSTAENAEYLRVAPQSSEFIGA
Sequence of BaF3 (EGFR L858R/C797S) (P00533 whole entry C797S/L858R): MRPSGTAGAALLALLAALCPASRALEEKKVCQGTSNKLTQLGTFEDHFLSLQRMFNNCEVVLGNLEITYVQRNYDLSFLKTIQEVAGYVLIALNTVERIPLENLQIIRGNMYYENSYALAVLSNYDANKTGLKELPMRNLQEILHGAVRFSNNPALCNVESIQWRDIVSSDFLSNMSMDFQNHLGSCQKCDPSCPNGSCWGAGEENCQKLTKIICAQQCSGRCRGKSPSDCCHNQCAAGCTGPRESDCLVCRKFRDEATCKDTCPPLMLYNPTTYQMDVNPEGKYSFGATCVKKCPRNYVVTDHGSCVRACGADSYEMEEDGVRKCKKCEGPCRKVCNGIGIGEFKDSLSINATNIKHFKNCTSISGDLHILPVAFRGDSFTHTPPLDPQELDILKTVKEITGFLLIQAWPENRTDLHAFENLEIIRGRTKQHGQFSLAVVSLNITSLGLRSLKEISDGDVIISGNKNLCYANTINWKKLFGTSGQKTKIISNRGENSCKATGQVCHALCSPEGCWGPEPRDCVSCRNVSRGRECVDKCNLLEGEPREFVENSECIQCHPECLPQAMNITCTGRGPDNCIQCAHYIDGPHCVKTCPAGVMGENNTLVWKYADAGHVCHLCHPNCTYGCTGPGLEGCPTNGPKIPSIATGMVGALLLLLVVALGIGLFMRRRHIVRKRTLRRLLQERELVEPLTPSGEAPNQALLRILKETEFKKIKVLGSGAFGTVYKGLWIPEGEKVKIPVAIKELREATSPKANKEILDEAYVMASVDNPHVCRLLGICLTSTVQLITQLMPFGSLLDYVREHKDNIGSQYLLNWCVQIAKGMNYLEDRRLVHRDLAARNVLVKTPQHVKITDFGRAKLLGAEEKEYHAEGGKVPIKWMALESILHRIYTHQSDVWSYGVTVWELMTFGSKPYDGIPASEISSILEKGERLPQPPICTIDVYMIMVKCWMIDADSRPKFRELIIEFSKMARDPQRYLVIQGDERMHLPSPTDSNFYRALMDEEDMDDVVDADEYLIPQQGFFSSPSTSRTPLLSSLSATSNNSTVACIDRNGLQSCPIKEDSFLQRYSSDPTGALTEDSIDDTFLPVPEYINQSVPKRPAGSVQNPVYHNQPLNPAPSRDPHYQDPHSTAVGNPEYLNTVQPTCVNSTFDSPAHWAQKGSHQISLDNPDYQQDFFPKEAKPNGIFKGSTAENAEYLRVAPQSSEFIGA
Sequence of BaF3 (EGFR L858R) (P00533 whole entry L858R): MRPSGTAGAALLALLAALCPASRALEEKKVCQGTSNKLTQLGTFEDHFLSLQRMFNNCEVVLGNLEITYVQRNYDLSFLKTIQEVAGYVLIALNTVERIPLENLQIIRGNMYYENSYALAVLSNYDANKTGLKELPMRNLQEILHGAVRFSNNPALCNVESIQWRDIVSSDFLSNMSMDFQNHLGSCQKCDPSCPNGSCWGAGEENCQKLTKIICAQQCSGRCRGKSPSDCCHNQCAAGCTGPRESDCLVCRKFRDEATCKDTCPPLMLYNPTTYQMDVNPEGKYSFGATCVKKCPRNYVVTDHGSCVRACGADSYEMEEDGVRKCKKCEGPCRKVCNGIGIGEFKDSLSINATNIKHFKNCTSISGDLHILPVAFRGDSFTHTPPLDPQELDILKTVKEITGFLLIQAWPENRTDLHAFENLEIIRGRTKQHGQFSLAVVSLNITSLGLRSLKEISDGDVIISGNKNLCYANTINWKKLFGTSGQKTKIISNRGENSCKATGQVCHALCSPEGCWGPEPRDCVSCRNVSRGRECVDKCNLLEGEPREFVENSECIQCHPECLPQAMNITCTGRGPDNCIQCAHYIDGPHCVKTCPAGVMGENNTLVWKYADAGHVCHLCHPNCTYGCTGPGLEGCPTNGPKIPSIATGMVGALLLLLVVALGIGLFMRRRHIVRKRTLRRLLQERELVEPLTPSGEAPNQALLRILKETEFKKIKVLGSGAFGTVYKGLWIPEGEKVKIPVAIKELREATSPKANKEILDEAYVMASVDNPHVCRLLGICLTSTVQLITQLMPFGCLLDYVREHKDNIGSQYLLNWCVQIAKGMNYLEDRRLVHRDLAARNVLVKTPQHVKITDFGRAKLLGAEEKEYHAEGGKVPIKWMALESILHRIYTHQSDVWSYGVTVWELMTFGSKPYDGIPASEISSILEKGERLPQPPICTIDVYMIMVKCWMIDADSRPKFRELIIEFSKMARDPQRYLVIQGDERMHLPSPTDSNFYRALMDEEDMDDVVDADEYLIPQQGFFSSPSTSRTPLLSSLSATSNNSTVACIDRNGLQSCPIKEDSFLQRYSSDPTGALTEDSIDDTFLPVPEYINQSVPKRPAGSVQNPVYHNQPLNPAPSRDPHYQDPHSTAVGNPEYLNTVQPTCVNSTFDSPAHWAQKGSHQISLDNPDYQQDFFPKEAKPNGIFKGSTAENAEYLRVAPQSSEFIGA
T2 sequence (P00533 with tags, fused parts or gaps DEL746-750/C797S, form open): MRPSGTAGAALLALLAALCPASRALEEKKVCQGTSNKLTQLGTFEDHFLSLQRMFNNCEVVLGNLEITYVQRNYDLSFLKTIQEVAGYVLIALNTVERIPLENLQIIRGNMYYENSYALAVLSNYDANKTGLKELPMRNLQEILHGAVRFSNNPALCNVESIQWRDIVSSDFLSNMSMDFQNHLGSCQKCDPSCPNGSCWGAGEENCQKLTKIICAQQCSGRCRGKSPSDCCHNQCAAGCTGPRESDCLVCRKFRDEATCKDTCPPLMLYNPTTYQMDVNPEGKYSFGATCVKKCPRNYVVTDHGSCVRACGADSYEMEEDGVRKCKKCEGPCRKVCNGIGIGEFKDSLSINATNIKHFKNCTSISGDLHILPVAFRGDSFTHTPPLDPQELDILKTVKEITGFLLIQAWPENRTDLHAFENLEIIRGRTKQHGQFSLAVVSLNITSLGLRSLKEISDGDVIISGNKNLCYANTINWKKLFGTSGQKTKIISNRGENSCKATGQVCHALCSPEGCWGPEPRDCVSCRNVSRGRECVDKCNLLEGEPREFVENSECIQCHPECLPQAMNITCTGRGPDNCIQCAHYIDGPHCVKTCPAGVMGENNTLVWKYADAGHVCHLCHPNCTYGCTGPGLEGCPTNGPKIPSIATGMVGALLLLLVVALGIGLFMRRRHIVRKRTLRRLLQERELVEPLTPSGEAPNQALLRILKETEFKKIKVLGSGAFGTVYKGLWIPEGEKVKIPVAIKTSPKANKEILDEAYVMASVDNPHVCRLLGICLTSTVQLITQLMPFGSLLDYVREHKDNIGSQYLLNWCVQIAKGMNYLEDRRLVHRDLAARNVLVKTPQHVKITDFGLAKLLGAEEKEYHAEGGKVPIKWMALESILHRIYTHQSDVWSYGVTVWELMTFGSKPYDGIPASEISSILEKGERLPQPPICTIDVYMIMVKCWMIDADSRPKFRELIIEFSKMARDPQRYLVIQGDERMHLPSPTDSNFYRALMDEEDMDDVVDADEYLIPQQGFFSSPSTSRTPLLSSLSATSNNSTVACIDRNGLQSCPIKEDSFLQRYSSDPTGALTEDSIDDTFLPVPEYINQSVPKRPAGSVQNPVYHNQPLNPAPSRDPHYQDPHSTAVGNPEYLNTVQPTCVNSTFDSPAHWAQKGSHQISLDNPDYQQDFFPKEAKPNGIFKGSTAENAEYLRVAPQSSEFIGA

## CCc1cc(Nc2ncc(Cl)c(Nc3ccccc3P(C)(C)=O)n2)c(OC)cc1N1CCC(N2CCN(CCC#Cc3cccc4c3CN(C3CCC(=O)NC3=O)C4=O)CC2)CC1 (single isomer, unassigned) [Example E4]
Human EGFR-DTC
  DC50: 2.27 nM
  EGFR-DTC Dmax: 96%
LT
  IC50: 7.4 nM
Human EGFR-LTC; Ba/F3 cells expressing human EGFR-LTC
  DC50: 6.26 nM
Human EGFR-LTC; BaF3, Ba/F3 cells expressing human EGFR-LTC
  Dmax: 91%
BaF3 (EGFR WT)
  IC50: > 4000 nM
BaF3 patent
  IC50: > 4000 nM
BaF3 (EGFR L858R/C797S)
  GI50: 23 nM
BaF3 (EGFR Del19)
  GI50: 2.1 nM
BaF3 (EGFR Del19/C797S)
  IC50: 4.8 nM
A431
  IC50: 2060 nM
[1]
  IC50: 6.6 nM
BaF3 (EGFR L858R)
  GI50: 6.7 nM
[2]
  IC50: 37.6 nM
Human EGFR-DC
  DC50: 18.6 nM
  EGFR-DC Dmax: 75%
DT
  IC50: 5.5 nM
